# Reference: ChEMBL document CHEMBL3091348, “Discovery of an intravenous hepatoselective glucokinase activator for the treatment of inpatient hyperglycemia” (Bioorg Med Chem Lett, 2013)
# How the values were obtained:
# [1] = Lipophilicity, log D of the compound at pH 7.4; assay type: physicochemical; settings: buffer
# [2] = Apparent permeability across RRCK cells; assay type: ADME, cell-based, Canis lupus familiaris, MDCKII-LE; settings: dog, MDCK
# [3] = biological target: T1, Hexokinase-4 (Homo sapiens) (UniProt P35557); test: Activation of recombinant human glucokinase assessed as decrease in enzyme Km for glucose by G6PDH/NADP coupled assay relative to control
# T1 sequence (whole entry): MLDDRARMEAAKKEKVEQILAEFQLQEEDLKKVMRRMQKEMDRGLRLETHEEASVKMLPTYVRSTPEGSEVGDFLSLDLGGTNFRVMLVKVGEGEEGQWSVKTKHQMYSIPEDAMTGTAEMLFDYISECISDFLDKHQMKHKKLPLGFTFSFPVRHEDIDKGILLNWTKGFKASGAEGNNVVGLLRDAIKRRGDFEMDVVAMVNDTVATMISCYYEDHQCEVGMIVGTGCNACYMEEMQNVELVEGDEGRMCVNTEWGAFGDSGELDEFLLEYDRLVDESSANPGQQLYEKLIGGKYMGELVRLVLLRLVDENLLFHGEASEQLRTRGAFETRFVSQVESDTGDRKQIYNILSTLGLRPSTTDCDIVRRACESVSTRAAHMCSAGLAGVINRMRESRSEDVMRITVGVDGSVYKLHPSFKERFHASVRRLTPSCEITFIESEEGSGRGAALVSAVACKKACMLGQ
# [4] = biological target: T1, Hexokinase-4 (Homo sapiens); test: Activation of recombinant human glucokinase assessed as increase in enzyme Vmax for glucose by G6PDH/NADP coupled assay relative to control
# Hexokinase-4 [5] = biological target: T2, Hexokinase-4 (Homo sapiens, UniProt P35557); test: Activation of recombinant human glucokinase by G6PDH/NADP coupled assay
# T2 sequence (P35557 whole entry): T1 sequence (whole entry)
# Hexokinase-4 [6] = biological target: T3, Hexokinase-4 (Rattus norvegicus, UniProt P17712); test: Activation of glucokinase in rat INS-1 cells assessed as glucose-stimulated insulin secretion; assay type: cell-based, INS1
# T3 sequence (P17712 whole entry): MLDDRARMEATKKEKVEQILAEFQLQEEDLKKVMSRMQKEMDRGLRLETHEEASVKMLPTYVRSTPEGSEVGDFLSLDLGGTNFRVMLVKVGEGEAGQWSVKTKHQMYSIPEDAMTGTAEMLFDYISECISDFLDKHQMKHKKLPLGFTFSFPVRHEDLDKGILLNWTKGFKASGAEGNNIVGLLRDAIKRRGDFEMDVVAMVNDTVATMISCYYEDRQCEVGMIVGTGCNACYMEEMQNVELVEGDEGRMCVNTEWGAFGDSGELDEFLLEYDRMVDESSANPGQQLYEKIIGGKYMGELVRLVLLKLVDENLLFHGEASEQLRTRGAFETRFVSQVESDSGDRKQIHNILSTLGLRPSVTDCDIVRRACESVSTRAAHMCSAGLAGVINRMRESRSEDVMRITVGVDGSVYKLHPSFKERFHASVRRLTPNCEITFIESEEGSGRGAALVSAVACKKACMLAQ
# [7] = Aqueous solubility of the compound at pH 8.5; assay type: physicochemical
# Rattus norvegicus = test: Antidiabetic activity in Goto-Kakizaki rat diabetic model assessed as reduction in glucose excursion AUC at 100 mg/kg, po measured after 1 hr by oral glucose tolerance test relative to control; design: scale not given: the % may be the effect or the level left
SMILES,logD [1],Papp [2],fold change (FC) [3],fold change (FC) [4],EC50 (Hexokinase-4 [5]),EC50 (Hexokinase-4 [6]),solubility [7],Activity (Rattus norvegicus)
O=C(O)c1ccc(NC(=O)[C@H](CC2CCCC2)n2cnc(S(=O)(=O)C3CC3)c2)nc1,-0.2,0.6 ×10⁻⁶ cm/s,0.05,1.68,0.137 µM,26 µM,–,–
O=C(O)c1ccc(NC(=O)[C@H](CC2CCCC2)n2cnc(S(=O)(=O)C3CCC3)c2)nc1,–,–,0.06,1.35,–,–,–,–
O=C([O-])c1ccc(NC(=O)[C@H](CC2CCCC2)n2cnc(S(=O)(=O)C3CCC3)c2)nc1.[Na+],–,–,–,–,–,–,41 mM,–
O=C(O)c1ccc(NC(=O)[C@H](CC2CCOCC2)n2cnc(S(=O)(=O)C3CC3)c2)nc1,-1.85,0.9 ×10⁻⁶ cm/s,0.11,1.21,1.35 µM,–,–,–
O=C(O)c1ccc(NC(=O)[C@H](CC2CCCC2)n2cnc(C(F)(F)F)c2)nc1 [PF-04991532],0.68,–,–,–,–,–,–,17.7%
